Data reported in patent publication US12678471B2 (priority 2022, dated 2026).

System: ACE2-293T cells
Details: for Cell viability (%): 10 μM, 24 hours, ACE2-293T cells, vehicle group = 100%, mean ± SD (n = 3); for Cytotoxicity to ACE2-293T cells (result in words): dose of 10 μM

## COc1cc2c3cc1Oc1c(O)c(OC)cc4c1[C@@H](Cc1ccc(O)c(c1)Oc1ccc(cc1)C[C@@H]3N(C)CC2)N(C)CC4 [Obamegine]
  Cell viability (%): 98.19 ± 1.11%
  Cytotoxicity to ACE2-293T cells (result in words): caused no harms to the ACE2-293T cells

## COc1cc2c3cc1Oc1c(OC)c(OC)cc4c1[C@@H](Cc1ccc(O)c(c1)Oc1ccc(cc1)C[C@@H]3N(C)CC2)N(C)CC4 [Berbamine]
  Cell viability (%): 98.15 ± 3.04%
  Cytotoxicity to ACE2-293T cells (result in words): caused no harms to the ACE2-293T cells

## Bersavine
  Cell viability (%): 95.42 ± 2.33%
  Cytotoxicity to ACE2-293T cells (result in words): caused no harms to the ACE2-293T cells
